Source: the supplement of paper PMC11061612

Columns and labels:
[1] = test system: D-283MED (Other Solid Carcinomas); assay: Bliss excess, mean over the matrix (fraction); higher = more synergy
Method in brief: (§1)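 Cell lines grown in DMEM/F12 or RPMI with 10% FBS were plated in 1536-well plates and held 24 hours at 37°C, 5% CO2 before 72 hours of exposure to two-drug dose matrices, with DMSO typically at 0.2%. CellTiter-Glo 2.0 luminescence gave viability, which was converted to inhibition. Vehicle wells were set to 0 and blank wells to 1. Combination Emax is the second-highest inhibition in the matrix, and Bliss excess is the observed combination effect minus the expected EA + EB − EA·EB, where EA and EB are the single-agent effects.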

D-392MG (Glioblastoma) [2] = assay: as above
Method in brief: as §1

[3] = test system: DOK (Oral Cavity Carcinoma); assay: as above
Method in brief: as §1

EW-22 (Ewing's Sarcoma) = assay: as above
Method in brief: as §1

HCC38 (Breast Carcinoma) = assay: as above
Method in brief: as §1

[4] = test system: HLE (Hepatocellular Carcinoma); assay: as above
Method in brief: as §1

[5] = test system: HOP-92 (Non-Small Cell Lung Carcinoma); assay: as above
Method in brief: as §1

HuO9 (Osteosarcoma) = assay: as above
Method in brief: as §1

MCF7 (Breast Carcinoma) = assay: as above
Method in brief: as §1

[6] = test system: P31-FUJ (Acute Myeloid Leukemia); assay: as above
Method in brief: as §1

[7] = test system: SK-UT-1 (Other Solid Carcinomas); assay: as above
Method in brief: as §1

[8] = test system: SW48 (Colorectal Carcinoma); assay: as above
Method in brief: as §1

[9] = test system: SW948 (Colorectal Carcinoma); assay: as above
Method in brief: as §1

[10] = test system: U-118-MG (Low Grade Glioma); assay: as above
Method in brief: as §1

[11] = test system: BICR78 (Oral Cavity Carcinoma); assay: combination Emax (second highest fraction inhibited in the dose matrix, 72 h); higher = more inhibition; extreme values may be limits of the assay
Method in brief: as §1

D-392MG (Glioblastoma) [12] = assay: as above
Method in brief: as §1

[13] = test system: HOP-92 (Non-Small Cell Lung Carcinoma); assay: as above
Method in brief: as §1

[14] = test system: NCI-H1688 (Small Cell Lung Carcinoma); assay: as above
Method in brief: as §1

[15] = test system: P31-FUJ (Acute Myeloid Leukemia); assay: as above
Method in brief: as §1

[16] = test system: SK-UT-1 (Other Solid Carcinomas); assay: as above
Method in brief: as §1
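Throughout, for Bliss excess, mean over the matrix: after 72 h of two-drug dosing.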

| SMILES | Bliss excess [1] | Bliss excess (D-392MG (Glioblastoma) [2]) | Bliss excess [3] | Bliss excess (EW-22 (Ewing's Sarcoma)) | Bliss excess (HCC38 (Breast Carcinoma)) | Bliss excess [4] | Bliss excess [5] | Bliss excess (HuO9 (Osteosarcoma)) | Bliss excess (MCF7 (Breast Carcinoma)) | Bliss excess [6] | Bliss excess [7] | Bliss excess [8] | Bliss excess [9] | Bliss excess [10] | combination Emax [11] | combination Emax (D-392MG (Glioblastoma) [12]) | combination Emax [13] | combination Emax [14] | combination Emax [15] | combination Emax [16] |
| --- | --- | --- | --- | --- | --- | --- | --- | --- | --- | --- | --- | --- | --- | --- | --- | --- | --- | --- | --- | --- |
| CN(CCO)CC[C@H](CSc1ccccc1)Nc1ccc(S(=O)(=O)NC(=O)c2ccc(N3CCC([C@@H](O)c4ccccc4-c4ccc(Cl)cc4)CC3)cc2)cc1S(=O)(=O)C(F)(F)F [AZD4320] + Cc1cc2ncnn2cc1Nc1ncc2c(n1)n(C1CCOCC1)c(=O)n2C [AZD7648] (first compound max 1 µM, 7x7, partner max 10 µM) | 0.0051 | -0.0614 | -0.0178 | -0.0165 | -0.0694 | -0.0295 | -0.0034 | 0.0482 | -0.0357 | -0.0229 | -0.0195 | 0.0314 | -0.0233 | -0.0154 | 0.198 | 0.169 | 0.891 | 0.617 | 0.858 | 0.163 |
| COc1nnc2ccc(N3CCC(c4ccc(OCCN5CCN(C)C(=O)[C@H]5C)cc4)CC3)nn12 [AZD5153] + C=CCn1c(=O)c2cnc(Nc3ccc(N4CCN(C)CC4)cc3)nc2n1-c1cccc(C(C)(C)O)n1 [AZD1775] (first compound max 1 µM, partner max 1 µM) | -0.034 | -0.0797 | -0.0239 | 0.0427 | -0.107 | 0.0069 | -0.0301 | -0.035 | -0.0356 | -0.0392 | -0.0323 | -0.0699 | -0.11 | -0.0235 | 0.482 | 0.497 | 0.406 | 0.707 | 0.97 | 0.787 |
| COc1nnc2ccc(N3CCC(c4ccc(OCCN5CCN(C)C(=O)[C@H]5C)cc4)CC3)nn12 [AZD5153] + CC1(C)CCC(CN2CCN(c3ccc(C(=O)NS(=O)(=O)c4ccc(NCC5CCOCC5)c([N+](=O)[O-])c4)c(Oc4cnc5[nH]ccc5c4)c3)CC2)=C(c2ccc(Cl)cc2)C1 [Venetoclax] (first compound max 1 µM, 7x7, partner max 1 µM) | -0.0343 | -0.0961 | -0.0696 | -0.0176 | -0.0324 | -0.0522 | -0.0242 | -0.0198 | -0.0183 | -0.0447 | -0.0459 | -0.0081 | -0.0016 | -0.0349 | 0.468 | 0.45 | 0.362 | 0.384 | 0.974 | 0.543 |
| COc1nnc2ccc(N3CCC(c4ccc(OCCN5CCN(C)C(=O)[C@H]5C)cc4)CC3)nn12 [AZD5153] + CCN(CCO)CCCOc1ccc2c(Nc3cc(CC(=O)Nc4cccc(F)c4)[nH]n3)ncnc2c1 [AZD2811] (first compound max 1 µM, 7x7, partner max 1 µM) | 0.001 | -0.037 | -0.0906 | -0.0779 | -0.0398 | -0.0177 | -0.079 | -0.0983 | -0.0721 | -0.0293 | -0.0144 | -0.0821 | -0.102 | -0.0317 | 0.542 | 0.456 | 0.402 | 0.389 | 0.982 | 0.658 |
| COc1nnc2ccc(N3CCC(c4ccc(OCCN5CCN(C)C(=O)[C@H]5C)cc4)CC3)nn12 [AZD5153] + C[C@@H]1COCCN1C2=NC(=NC(=C2)C3(CC3)[S@](=N)(=O)C)C4=C5C=CNC5=NC=C4 [AZD6738] (first compound max 1 µM, 7x7, partner max 10 µM) | -0.0087 | -0.0033 | 0.008 | -0.0258 | -0.0182 | 0.0608 | 0.0246 | 0.031 | -0.0228 | -0.0685 | 0.0401 | -0.109 | -0.0493 | 0.0267 | 0.636 | 0.514 | 0.374 | 0.633 | 0.987 | 0.925 |
| COc1nnc2ccc(N3CCC(c4ccc(OCCN5CCN(C)C(=O)[C@H]5C)cc4)CC3)nn12 [AZD5153] + Cc1c2c(nn1C)CSCc1cc(n(C)n1)CSc1cc(c3ccccc3c1)OCCCc1c(C(=O)O)n(C)c3c-2c(Cl)ccc13 [AZD5991] (first compound max 1 µM, 7x7, partner max 1 µM) | -0.0409 | -0.0388 | -0.0051 | 0.0553 | -0.0019 | 0.0047 | -0.001 | 0.0377 | -0.0003 | -0.0869 | -0.0031 | 0.015 | -0.0482 | -0.0341 | 0.501 | 0.541 | 0.386 | 0.647 | 0.995 | 0.653 |
| COc1nnc2ccc(N3CCC(c4ccc(OCCN5CCN(C)C(=O)[C@H]5C)cc4)CC3)nn12 [AZD5153] + Cn1cnc2c(F)c(Nc3ccc(Br)cc3Cl)c(C(=O)NOCCO)cc21 [Selumetinib] (first compound max 1 µM, 7x7, partner max 10 µM) | -0.0211 | 0.0081 | -0.0297 | -0.0668 | -0.0392 | 0.0073 | 0.0604 | 0.0052 | -0.0307 | 0.0339 | 0.0089 | 0.0619 | -0.0006 | -0.016 | 0.548 | 0.569 | 0.556 | 0.384 | 0.985 | 0.486 |
| Cc1c2c(nn1C)CSCc1cc(n(C)n1)CSc1cc(c3ccccc3c1)OCCCc1c(C(=O)O)n(C)c3c-2c(Cl)ccc13 [AZD5991] + C1CN(CCC1(C(=O)N[C@@H](CCO)C2=CC=C(C=C2)Cl)N)C3=NC=NC4=C3C=CN4 [Capivasertib] (first compound max 1 µM, 7x7, partner max 3 µM) | 0.0094 | 0.0557 | -0.0113 | 0.0007 | 0.0062 | 0.0341 | -0.0294 | 0.0085 | 0.0778 | 0.0182 | 0.0297 | -0.034 | 0.0308 | -0.0205 | 0.266 | 0.495 | 0.402 | 0.322 | 0.99 | 0.24 |
| Cc1c2c(nn1C)CSCc1cc(n(C)n1)CSc1cc(c3ccccc3c1)OCCCc1c(C(=O)O)n(C)c3c-2c(Cl)ccc13 [AZD5991] + C=CCn1c(=O)c2cnc(Nc3ccc(N4CCN(C)CC4)cc3)nc2n1-c1cccc(C(C)(C)O)n1 [AZD1775] (first compound max 1 µM, partner max 1 µM) | -0.0583 | 0.116 | -0.0235 | 0.0756 | 0.0396 | 0.0017 | -0.012 | -0.0292 | -0.0622 | -0.0127 | -0.0534 | -0.0318 | -0.13 | -0.0014 | 0.381 | 0.417 | 0.807 | 0.601 | 0.99 | 0.613 |
| Cc1c2c(nn1C)CSCc1cc(n(C)n1)CSc1cc(c3ccccc3c1)OCCCc1c(C(=O)O)n(C)c3c-2c(Cl)ccc13 [AZD5991] + CC1(C)CCC(CN2CCN(c3ccc(C(=O)NS(=O)(=O)c4ccc(NCC5CCOCC5)c([N+](=O)[O-])c4)c(Oc4cnc5[nH]ccc5c4)c3)CC2)=C(c2ccc(Cl)cc2)C1 [Venetoclax] (first compound max 1 µM, 7x7, partner max 1 µM) | 0.0701 | 0.0314 | 0.0712 | 0.128 | -0.0307 | -0.0061 | 0.0247 | 0.0182 | 0.0623 | 0.137 | -0.0095 | 0.0059 | -0.003 | -0.0328 | 0.18 | 0.791 | 0.44 | 0.702 | 0.998 | 0.138 |
| Cc1c2c(nn1C)CSCc1cc(n(C)n1)CSc1cc(c3ccccc3c1)OCCCc1c(C(=O)O)n(C)c3c-2c(Cl)ccc13 [AZD5991] + CCN(CCO)CCCOc1ccc2c(Nc3cc(CC(=O)Nc4cccc(F)c4)[nH]n3)ncnc2c1 [AZD2811] (first compound max 1 µM, 7x7, partner max 1 µM) | 0.051 | 0.0121 | 0.0524 | 0.0711 | 0.058 | -0.0018 | 0.0184 | -0.0035 | 0.0081 | -0.0193 | 0.0125 | -0.0063 | -0.0014 | 0.0042 | 0.304 | 0.403 | 0.689 | 0.314 | 0.994 | 0.367 |
| Cc1c2c(nn1C)CSCc1cc(n(C)n1)CSc1cc(c3ccccc3c1)OCCCc1c(C(=O)O)n(C)c3c-2c(Cl)ccc13 [AZD5991] + CN(C)CCCOc1ccc(-c2ccc3ncc4c(c3c2)n(C2CCOCC2)c(=O)n4C)cn1 [AZD0156] (first compound max 1 µM, 7x7, partner max 1 µM) | 0.0096 | -0.0225 | -0.0121 | -0.0015 | -0.0182 | 0.0424 | -0.044 | -0.0171 | -0.0063 | 0.0014 | -0.0195 | 0.0051 | -0.0205 | -0.0035 | 0.219 | 0.252 | 0.41 | 0.276 | 0.974 | 0.245 |
| Cc1c2c(nn1C)CSCc1cc(n(C)n1)CSc1cc(c3ccccc3c1)OCCCc1c(C(=O)O)n(C)c3c-2c(Cl)ccc13 [AZD5991] + C[C@@H](Nc1cc(F)cc(F)c1)c1cc(C(=O)N(C)C)cc2c(=O)cc(N3CCOCC3)oc12 [AZD8186] (first compound max 1 µM, 7x7, partner max 3 µM) | -0.0186 | 0.0111 | 0.003 | -0.0396 | 0.011 | 0.0254 | 0.0222 | 0.0127 | -0.01 | -0.041 | -0.0104 | -0.0271 | -0.0498 | 0.0012 | 0.189 | 0.301 | 0.587 | 0.339 | 0.959 | 0.188 |
| Cc1c2c(nn1C)CSCc1cc(n(C)n1)CSc1cc(c3ccccc3c1)OCCCc1c(C(=O)O)n(C)c3c-2c(Cl)ccc13 [AZD5991] + Cc1cc2ncnn2cc1Nc1ncc2c(n1)n(C1CCOCC1)c(=O)n2C [AZD7648] (first compound max 1 µM, 7x7, partner max 10 µM) | -0.0158 | -0.0664 | 0.0115 | -0.041 | -0.0418 | -0.0253 | -0.0332 | -0.018 | 0.0011 | 0.0055 | -0.0252 | -0.036 | -0.0328 | -0.0098 | 0.219 | 0.271 | 0.448 | 0.297 | 0.965 | 0.282 |
